These results are taken from US11912683B1 (priority 2023, dated 2024).

Converted amounts (≈) assume the structure as drawn.

The test system of series [1] is Mycobacterium tuberculosis H37Rv. The experiment in a line: Anti-tubercular activity, colorimetric Resazurin Microplate Assay (REMA), H37Rv. The class given is cell-based. The note with it: 192 h, read-out: Anti-tubercular activity against Mycobacterium tuberculosis H37Rv (MIC).

Broadly, the melting point is the temperature, or range, at which the solid turns liquid. Compound `CC1=C(C(=O)N2CCCC2)C(c2ccccc2)NC(=S)N1` (stereo not drawn) [DHPM-KN14, (6-Methyl-4-phenyl-2-thioxo-1,2,3,4-tetrahydropyrimidin-5-yl)(pyrrolidin-1-yl)methanone] yielded a melting point of 198 °C.

By MIC is commonly meant the smallest concentration in the dilution series that meets the test's criterion for growth inhibition. Consider `CC1=C(C(=O)N2CCCCC2)C(c2ccccc2C)NC(=S)N1` (stereo not drawn) [DHPM-KN8, (6-Methyl-2-thioxo-4-(o-tolyl)-1,2,3,4-tetrahydropyrimidin-5-yl)(piperidin-1-yl)methanone], for which the melting point was determined as 260 °C. In addition, in series [1], the MIC is 128 µg/mL (≈ 389 µM).

The compound `COC(=O)C1=C(C)NC(=O)NC1c1ccc([N+](=O)[O-])cc1[N+](=O)[O-]` (stereo not drawn) [DHPM-KN4, Methyl 4-(2,4-dinitrophenyl)-6-methyl-2-oxo-1,2,3,4-tetrahydropyrimidine-5-carboxylate] showed a melting point of 210 °C. Besides, the MIC in series [1] came out at 16 µg/mL (≈ 47.6 µM).

Turning to `CC1=C(C(=O)N2CCCCC2)C(c2ccc(Br)cc2)NC(=S)N1` (stereo not drawn) [DHPM-KN6, (4-(4-Bromophenyl)-6-methyl-2-thioxo-1,2,3,4-tetrahydropyrimidin-5-yl)(piperidin-1-yl)methanone], the melting point was 258 °C. In addition, in series [1], the minimum inhibitory concentration (MIC) is more than 64 µg/mL.

Compound `CC1=C(C(=O)N2CCCCC2)C(c2ccccc2O)NC(=S)N1` (stereo not drawn) [DHPM-KN12, (4-(2-Hydroxyphenyl)-6-methyl-2-thioxo-1,2,3,4-tetrahydropyrimidin-5-yl)(piperidin-1-yl)methanone] registered a melting point of 223 °C.

For `CC1=C(C(=O)N2CCCCC2)C(c2ccc(F)cc2)NC(=S)N1` (stereo not drawn) [DHPM-KN2, (4-(4-Fluorophenyl)-6-methyl-2-thioxo-1,2,3,4-tetrahydropyrimidin-5-yl)(piperidin-1-yl)methanone], the melting point was 234 °C.

Turning to `COC(=O)C1=C(C)NC(=S)NC1c1ccc(C(F)(F)F)cc1` (stereo not drawn) [DHPM-KN3, Methyl 6-methyl-2-thioxo-4-(4-(trifluoromethyl)phenyl)-1,2,3,4-tetrahydropyrimidine-5-carboxylate], the melting point amounted to 190 °C.

On to `COc1ccc(C2NC(=S)NC(C)=C2C(=O)N2CCCCC2)cc1` (stereo not drawn) [DHPM-KN7, (4-(4-Methoxyphenyl)-6-methyl-2-thioxo-1,2,3,4-tetrahydropyrimidin-5-yl)(piperidin-1-yl)methanone], for which the melting point amounted to 124 °C. The MIC in series [1] was more than 64 µg/mL.

Turning to `CC1=C(C(=O)N2CCCCC2)C(c2ccc([N+](=O)[O-])cc2)NC(=S)N1` (stereo not drawn) [DHPM-KN5, (6-Methyl-4-(4-nitrophenyl)-2-thioxo-1,2,3,4-tetrahydropyrimidin-5-yl)(piperidin-1-yl)methanone], the melting point stood at 230 °C. Moreover, the MIC in series [1] was 8 µg/mL (≈ 22.2 µM).

`CC1=C(C(=O)N2CCCCC2)C(c2ccc(Cl)cc2)NC(=S)N1` (stereo not drawn) [DHPM-KN9, (4-(4-Chlorophenyl)-6-methyl-2-thioxo-1,2,3,4-tetrahydropyrimidin-5-yl)(piperidin-1-yl)methanone] yielded a melting point of 218 °C.

`CC1=C(C(=O)N2CCCCC2)C(c2ccc(C(F)(F)F)cc2)NC(=S)N1` (stereo not drawn) [DHPM-KN10, (6-Methyl-2-thioxo-4-(4-(trifluoromethyl)phenyl)-1,2,3,4-tetrahydropyrimidin-5-yl)(piperidin-1-yl)methanone] displayed a melting point of 172 °C. Moreover, in series [1], the MIC was 128 µg/mL (≈ 334 µM).

In turn, `CC1=C(C(=O)N2CCCCC2)C(c2ccccc2)NC(=S)N1` (stereo not drawn) [DHPM-KN1, (6-Methyl-4-phenyl-2-thioxo-1,2,3,4-tetrahydropyrimidin-5-yl)(piperidin-1-yl)methanone] showed a melting point of 240 °C. Further, the MIC in series [1] was found to be 16 µg/mL (≈ 50.7 µM).

The compound `CC1=C(C(=O)N2CCCCC2)C(c2ccc(O)c(O)c2)NC(=S)N1` (stereo not drawn) [DHPM-KN13, (4-(3,4-Dihydroxyphenyl)-6-methyl-2-thioxo-1,2,3,4-tetrahydropyrimidin-5-yl)(piperidin-1-yl)methanone] had a melting point of 173 °C.

For the compound `CC1=C(C(=O)N2CCCCC2)C(c2ccc(O)cc2)NC(=S)N1` (stereo not drawn) [DHPM-KN11, (4-(4-Hydroxyphenyl)-6-methyl-2-thioxo-1,2,3,4-tetrahydropyrimidin-5-yl)(piperidin-1-yl)methanone], the melting point came out at 274 °C.
